In BindingDB's records for doi:10.1016/s0960-894x(98)00316-3 (Nippon Roche Research Center, 1998):

These compounds were tested against Lanosterol 14-alpha demethylase (Candida albicans) (UniProt P10613) (assay: In vitro inhibition of cytochrome P450 lanosterol C14 demethylase in Candida albicans CY1005).
Lanosterol 14-alpha demethylase (Candida albicans), sequence (P10613 whole entry, looked up): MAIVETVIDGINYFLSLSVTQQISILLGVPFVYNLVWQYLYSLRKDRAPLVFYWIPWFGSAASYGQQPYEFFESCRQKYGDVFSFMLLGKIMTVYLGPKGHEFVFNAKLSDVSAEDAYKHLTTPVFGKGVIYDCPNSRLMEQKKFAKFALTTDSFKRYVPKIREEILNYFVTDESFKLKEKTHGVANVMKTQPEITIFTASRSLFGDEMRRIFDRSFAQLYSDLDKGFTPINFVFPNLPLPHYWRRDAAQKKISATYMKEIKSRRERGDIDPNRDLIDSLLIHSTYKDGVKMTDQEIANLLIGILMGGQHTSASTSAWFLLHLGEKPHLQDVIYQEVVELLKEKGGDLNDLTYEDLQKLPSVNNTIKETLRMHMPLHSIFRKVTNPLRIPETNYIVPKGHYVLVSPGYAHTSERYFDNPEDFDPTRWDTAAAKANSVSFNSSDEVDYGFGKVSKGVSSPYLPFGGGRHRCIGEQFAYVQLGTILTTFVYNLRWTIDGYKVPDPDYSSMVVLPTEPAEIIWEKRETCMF

Row | IC50 | Compound
1 | 83 nM | CCc1ccc(CC[C@@H]2CCC(C)(C)C(OCCO)[C@H]2Cn2cncn2)cc1 (some centres not stated)
2 | 118 nM | COC1[C@@H](Cn2cncn2)[C@H](COc2ccc(OC(F)(F)F)cc2)CCC1(C)C (some centres not stated)
3 | 56.3 nM | CO/N=C1\[C@@H](Cn2cncn2)[C@H](COc2ccc(OC(F)(F)F)cc2)CCC1(C)C
4 | 22.5 nM | CC1(C)CC[C@@H](COc2ccc(OC(F)(F)F)cc2)[C@H](Cn2cncn2)C1OCCO (some centres not stated)
5 | 130 nM | CC1(C)CC[C@@H](COc2ccc(OC(F)(F)F)cc2)[C@H](Cn2cncn2)/C1=N\O
6 | 86.8 nM | CCc1ccc(CC[C@@H]2CCC(C)(C)/C(=N/OC)[C@H]2Cn2cncn2)cc1
7 | 73.3 nM | CCc1ccc(CC[C@@H]2CCC(C)(C)/C(=N/O)[C@H]2Cn2cncn2)cc1
